Assay results: US7932270B2 (Cytokinetics, Inc., priority 2006, dated 2011)
pIC50: −log10 of the molar value.

Molecular target: T1, chicken gizzard smooth muscle myosin subfragment-1 chemically crosslinked to cardiac or skeletal actin (Gallus gallus, UniProt P10587)
T1 construct: chicken gizzard smooth muscle myosin subfragment-1; from tissue; host or cells: chicken gizzard
Assay: Smooth muscle myosin ATPase dose response assay (pyruvate kinase/horseradish peroxidase/pyruvate oxidase-coupled, amplex red fluorescence)
Assay type: biochemical
Details: read-out: IC50 Arithmetic Mean
In short: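 Amplex red fluorescence (480 nm excitation, 615 nm emission) tracked ATP hydrolysis by smooth muscle S1 crosslinked to actin with carbodiimide/N-hydroxysuccinimide. Reactions contained 0.15 mM ATP and 100 mM KCl at pH 7.00, 22° C. IC50 came from a four-parameter logistic fit.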

T1 sequence (P02607 2-151): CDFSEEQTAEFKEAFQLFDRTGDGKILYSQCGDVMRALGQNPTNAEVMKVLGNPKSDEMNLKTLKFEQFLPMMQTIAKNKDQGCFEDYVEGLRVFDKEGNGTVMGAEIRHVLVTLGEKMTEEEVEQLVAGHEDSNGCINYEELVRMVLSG
T1 sequence (P10587 84-789): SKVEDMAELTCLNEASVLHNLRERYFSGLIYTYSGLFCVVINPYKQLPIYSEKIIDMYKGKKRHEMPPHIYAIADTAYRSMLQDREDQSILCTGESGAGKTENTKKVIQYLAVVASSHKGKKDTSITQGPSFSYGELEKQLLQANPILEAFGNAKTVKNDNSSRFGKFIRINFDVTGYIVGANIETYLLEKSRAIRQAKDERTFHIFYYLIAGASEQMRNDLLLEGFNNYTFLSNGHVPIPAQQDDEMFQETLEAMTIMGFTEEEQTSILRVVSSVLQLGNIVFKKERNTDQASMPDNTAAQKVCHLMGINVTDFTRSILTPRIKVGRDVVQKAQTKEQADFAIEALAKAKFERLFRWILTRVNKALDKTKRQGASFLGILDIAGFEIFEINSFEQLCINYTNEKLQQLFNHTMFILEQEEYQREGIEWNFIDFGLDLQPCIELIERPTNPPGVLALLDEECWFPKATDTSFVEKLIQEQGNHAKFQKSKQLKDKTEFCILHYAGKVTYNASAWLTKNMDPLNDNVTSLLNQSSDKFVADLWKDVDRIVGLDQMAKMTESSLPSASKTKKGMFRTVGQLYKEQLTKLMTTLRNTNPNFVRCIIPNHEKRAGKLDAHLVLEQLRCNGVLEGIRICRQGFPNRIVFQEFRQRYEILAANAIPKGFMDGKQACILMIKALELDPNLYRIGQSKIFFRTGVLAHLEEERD

Molecule	pIC50
N#Cc1ccccc1-c1ccc(C(=O)NC[C@@H]2CNCC(=O)N2)c(NCCc2cccc(F)c2)n1 [N-[((2S)-6-oxopiperazin-2-yl)methyl](6-(2-cyanophenyl)-2-{[2-(3-fluorophenyl)ethyl]amino}(3-pyridyl))carboxamide]	6.09
CC(C)(C)OC(=O)NCC(=O)N1CCCC[C@H]1CNC(=O)c1ccc(-c2ccccc2C#N)nc1NCCc1cccc(F)c1 [N-[((2S)-1-{2-[(tert-butoxy)carbonylamino]acetyl}(2-piperidyl))methyl](6-(2-cyanophenyl)-2-{[2-(3-fluorophenyl)ethyl]amino}(3-pyridyl))carboxamide]	4.77
N#Cc1ccccc1-c1ccc(C(=O)NCCCN)c(NCCc2cccc(F)c2)n1 [N-(3-aminopropyl)(6-(2-cyanophenyl)-2-{[2-(3-fluorophenyl)ethyl]amino}(3-pyridyl))carboxamide]	6.00
Cn1cc(-c2nc(NCCc3cccc(F)c3)c(C(=O)NC[C@H]3CCCN3C(=O)CCNC(=O)OC(C)(C)C)cc2F)cn1 [N-[((2R)-1-{3-[(tert-butoxy)carbonylamino]propanoyl}pyrrolidin-2-yl)methyl](5-fluoro-2-{[2-(3-fluorophenyl)ethyl]amino}-6-(1-methylpyrazol-4-yl)(3-pyridyl))carboxamide]	6.30
O=C(NCc1cccnc1)c1ccc(-c2ccccc2)nc1NCc1ccccc1 [{6-phenyl-2-[benzylamino](3-pyridyl)}-N-(3-pyridylmethyl)carboxamide]	5.55
N#Cc1ccccc1-c1ccc(C(=O)NCC2CCCCC(=O)N2CCCN)c(NCCc2cccc(F)c2)n1 (stereo not shown) [N-{[1-(3-aminopropyl)-7-oxoazaperhydroepin-2-yl]methyl}(6-(2-cyanophenyl)-2-{[2-(3-fluorophenyl)ethyl]amino}(3-pyridyl))carboxamide]	6.56
N#Cc1cc(C(=O)NC[C@H]2CCCN2C(=O)CCCN)c(NCCc2cccc(F)c2)nc1-c1cn[nH]c1 [N-{[(2R)-1-(4-aminobutanoyl)pyrrolidin-2-yl]methyl}(5-cyano-2-{[2-(3-fluorophenyl)ethyl]amino}-6-pyrazol-4-yl(3-pyridyl))carboxamide]	6.44
O=C(NCc1cccnc1)c1c(CO)cc(-c2ccccc2)nc1NCCc1cccc(F)c1 [(2-{[2-(3-fluorophenyl)ethyl]amino}-4-(hydroxymethyl)-6-phenyl(3-pyridyl))-N-(3-pyridylmethyl)carboxamide]	4.23
Cn1cc(-c2nc(NCCc3cccc(F)c3)c(C(=O)NCc3cccnc3CNC(=O)OC(C)(C)C)cc2Cl)cn1 [N-[(2-{[(tert-butoxy)carbonylamino]methyl}(3-pyridyl))methyl](5-chloro-2-{[2-(3-fluorophenyl)ethyl]amino}-6-(1-methylpyrazol-4-yl)(3-pyridyl))carboxamide]	6.38
O=C(NCc1cccnc1)c1cc(Br)c(-c2cn[nH]c2)nc1NCCc1cccc(F)c1 [(5-bromo-2-{[2-(3-fluorophenyl)ethyl]amino}-6-pyrazol-4-yl(3-pyridyl))-N-(3-pyridylmethyl)carboxamide]	7.68
(2-{[2-(2-oxoimidazolidinyl)ethyl]amino}-6-phenyl(3-pyridyl))-N-(3-pyridylmethyl)carboxamide	4.15
COC(=O)[C@H](CNC(=O)c1ccc(-c2ccccc2C#N)nc1NCCc1cccc(F)c1)NC(C)=O [methyl (2S)-2-(acetylamino)-3-[(6-(2-cyanophenyl)-2-{[2-(3-fluorophenyl)ethyl]amino}(3-pyridyl))carbonylamino]propanoate]	5.79
COC(=O)N1CCNC[C@@H]1CNC(=O)c1ccc(-c2ccccc2C#N)nc1NCCc1cccc(F)c1 [methyl (2R)-2-{[(6-(2-cyanophenyl)-2-{[2-(3-fluorophenyl)ethyl]amino}(3-pyridyl))carbonylamino]methyl}piperazinecarboxylate]	4.94
Cn1cc(-c2ccc(C(=O)NC[C@@H]3CNCC(=O)N3)c(NCCc3cccc(F)c3)n2)cn1 [N-[((2S)-6-oxopiperazin-2-yl)methyl](2-{[2-(3-fluorophenyl)ethyl]amino}-6-(1-methylpyrazol-4-yl)(3-pyridyl))carboxamide]	4.88
O=C(NCc1cccnc1)c1ccc(-c2ccccc2)nc1NCCc1ccco1 [{2-[(2-(2-furyl)ethyl)amino]-6-phenyl(3-pyridyl)}-N-(3-pyridylmethyl)carboxamide]	6.53
N#Cc1ccccc1-c1ccc(C(=O)NCc2ccn(CCCN)n2)c(NCCc2cccc(F)c2)n1 [N-{[1-(3-aminopropyl)pyrazol-3-yl]methyl}(6-(2-cyanophenyl)-2-{[2-(3-fluorophenyl)ethyl]amino}(3-pyridyl))carboxamide]	7.19
N#Cc1ccccc1-c1ccc(C(=O)NC[C@@H](CO)NC(=O)CN)c(NCCc2cccc(F)c2)n1 [N-((1S)-1-{[(6-(2-cyanophenyl)-2-{[2-(3-fluorophenyl)ethyl]amino}(3-pyridyl))carbonylamino]methyl}-2-hydroxyethyl)-2-aminoacetamide]	6.60

Molecule	pIC50
O=C(NCc1cccnc1)c1ccc(-c2ccc(F)c(F)c2)nc1NCCc1cccc(F)c1 [(6-(3,4-difluorophenyl)-2-{[2-(3-fluorophenyl)ethyl]amino}(3-pyridyl))-N-(3-pyridylmethyl)carboxamide]	6.27
COC(=O)c1cc(Cl)c(-c2cnn(C)c2)nc1NCCc1cccc(F)c1 [methyl 5-chloro-2-{[2-(3-fluorophenyl)ethyl]amino}-6-(1-methylpyrazol-4-yl)pyridine-3-carboxylate]	4.81
NCCn1ccc(CNC(=O)c2ccc(-c3cc[nH]n3)nc2NCCc2cccc(F)c2)n1 [N-{[1-(2-aminoethyl)pyrazol-3-yl]methyl}(2-{[2-(3-fluorophenyl)ethyl]amino}-6-pyrazol-3-yl(3-pyridyl))carboxamide]	5.26
N#Cc1ccccc1-c1ccc(C(=O)NC[C@H]2CCCN2CCN)c(NCCc2cccc(F)c2)n1 [N-{[(2R)-1-(2-aminoethyl)pyrrolidin-2-yl]methyl}(6-(2-cyanophenyl)-2-{[2-(3-fluorophenyl)ethyl]amino}(3-pyridyl))carboxamide]	6.15
N#Cc1ccccc1CCNc1nc(-c2ccccc2C#N)ccc1C(=O)NCc1cccnc1 [(6-(2-cyanophenyl)-2-{[2-(2-cyanophenyl)ethyl]amino}(3-pyridyl))-N-(3-pyridylmethyl)carboxamide]	7.36
N#Cc1cc(C(=O)NCc2cccnc2CN)c(NCCc2cccc(F)c2)nc1-c1cn[nH]c1 [N-{[2-(aminomethyl)(3-pyridyl)]methyl}(5-cyano-2-{[2-(3-fluorophenyl)ethyl]amino}-6-pyrazol-4-yl(3-pyridyl))carboxamide]	7.24
Cc1ccc(-c2ccc(C(=O)NCc3cccnc3)c(NCCc3ccccn3)n2)cc1 [{6-(4-methylphenyl)-2-[(2-(2-pyridyl)ethyl)amino](3-pyridyl)}-N-(3-pyridylmethyl)carboxamide]	6.17
N#Cc1ccccc1-c1ccc(C(=O)NC[C@H]2CCN2C(=O)[C@@H](N)CCCN)c(NCCc2cccc(F)c2)n1 [N-{[(2R)-1-((2S)-2,5-diaminopentanoyl)azetidin-2-yl]methyl}(6-(2-cyanophenyl)-2-{[2-(3-fluorophenyl)ethyl]amino}(3-pyridyl))carboxamide]	6.56
N#Cc1ccccc1-c1ccc(C(=O)NCc2cccc(NCCCN)n2)c(NCCc2cccc(F)c2)n1 [N-({6-[(3-aminopropyl)amino](2-pyridyl)}methyl)(6-(2-cyanophenyl)-2-{[2-(3-fluorophenyl)ethyl]amino}(3-pyridyl))carboxamide]	8.30
N#Cc1ccccc1-c1ccc(C(=O)NC[C@@H](CN)NC(=O)CN)c(NCCc2cccc(F)c2)n1 [N-((1R)-2-amino-1-{[(6-(2-cyanophenyl)-2-{[2-(3-fluorophenyl)ethyl]amino}(3-pyridyl))carbonylamino]methyl}ethyl)-2-aminoacetamide]	4.90
Cn1cc(-c2nc(NCCc3cccc(F)c3)c(C(=O)NC[C@H]3CCC(=O)N3)cc2F)cn1 [N-[((2R)-5-oxopyrrolidin-2-yl)methyl](5-fluoro-2-{[2-(3-fluorophenyl)ethyl]amino}-6-(1-methylpyrazol-4-yl)(3-pyridyl))carboxamide]	7.57
O=C(NC[C@H]1CCN1C(=O)CO)c1ccc(-c2ccc(CO)s2)nc1NCCc1cccc(F)c1 [N-{[(2R)-1-(2-hydroxyacetyl)azetidin-2-yl]methyl}(2-{[2-(3-fluorophenyl)ethyl]amino}-6-[5-(hydroxymethyl)(2-thienyl)](3-pyridyl))carboxamide]	5.59
O=C(NCc1cccnc1)c1ccc(-c2c(F)cccc2Cl)nc1NCCc1cccc(F)c1 [(6-(2-chloro-6-fluorophenyl)-2-{[2-(3-fluorophenyl)ethyl]amino}(3-pyridyl))-N-(3-pyridylmethyl)carboxamide]	6.27
COc1ccccc1CCNc1nc(-c2ccccc2)ccc1C(=O)NCc1cccnc1 [(2-{[2-(2-methoxyphenyl)ethyl]amino}-6-phenyl(3-pyridyl))-N-(3-pyridylmethyl)carboxamide]	6.01
NCC(=O)N1CCC[C@@H]1CNC(=O)c1cc(F)c(-c2cc[nH]n2)nc1NCCc1cccc(F)c1 [N-{[(2R)-1-(2-aminoacetyl)pyrrolidin-2-yl]methyl}(5-fluoro-2-{[2-(3-fluorophenyl)ethyl]amino}-6-pyrazol-3-yl(3-pyridyl))carboxamide]	6.97
N#Cc1ccccc1-c1ccc(C(=O)NCc2cccnc2CCN)c(NCCc2cccc(F)c2)n1 [N-{[2-(2-aminoethyl)(3-pyridyl)]methyl}(6-(2-cyanophenyl)-2-{[2-(3-fluorophenyl)ethyl]amino}(3-pyridyl))carboxamide]	8.22
N#Cc1ccccc1-c1ccc(C(=O)NC[C@@H]2CCC(=O)N2CCCN)c(NCCc2cccc(F)c2)n1 [N-{[(2S)-1-(3-aminopropyl)-5-oxopyrrolidin-2-yl]methyl}(6-(2-cyanophenyl)-2-{[2-(3-fluorophenyl)ethyl]amino}(3-pyridyl))carboxamide]	6.37
